This is an account of results in PubChem BioAssay (NCI).

Several values for one entry are separate records, joined by “and”; a condition that tells them apart may be missing. Equal entries are not always repeated.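 Results reflect a 48-hour exposure of cells in 96-well plates to compound at five concentrations. GI50: concentration for 50% inhibition of growth. TGI: total growth inhibition.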 Bounds are passed on as bounds.

Common to all, as to assay: NCI tumour cell line growth inhibition, 48 h
In test [1] the test system is SK-OV-3 ovarian.
Test [2] deals with UO-31 renal.
Test [3] deals with EKVX NSCLC.
In test [4] the test system is PC-3 prostate.
In test [5] the test system is MDA-MB-435.
In test [6] the test system is OVCAR-3 ovarian.
Test [7] has as its system OVCAR-8 ovarian.
Test [8] concerns HL-60(TB) leukemia.
Test [9] deals with NCI/ADR-RES ovarian.
For test [10], the system named is BT-549 breast.

Consider `C[C@H](c1ccccc1)N(CCC(=O)O)C(=O)CCN(C(=O)CCN(C(=O)CCN[C@H](C)c1ccccc1)[C@H](C)c1ccccc1)[C@H](C)c1ccccc1`, for which the GI50 in test [1], in test [2], in test [3], in test [4], in [5] and in test [6] was over 100 µM in each case. Also, the GI50 in test [7], in test [8], in [9] and in test [10] was over 100 µM throughout. Also, the TGI in test [1], in [2], in test [3], in test [4], in [5] and in test [6] was over 100 µM throughout. Besides, the TGI in [7], in test [8], in [9] and in [10] was over 100 µM in each case.
On to `O=c1c2cc(O)c(O)cc2oc2cc(O)c(C3OC(CO)C(O)C(O)C3O)c(O)c12` (centres undefined), for which the TGI in test [1], in test [2], in [3], in test [4], in test [5] and in [6] was over 100 µM each time. Further, the TGI in test [7], in test [8], in test [9] and in test [10] was over 100 µM each time.
In the case of `Cc1ccc(S(=O)(=O)CC2(Br)CCc3ccccc3C2=O)cc1` (centres undefined), the TGI was over 100 µM in test [1]; 50.5 µM in test [2]; over 100 µM in [3]; over 100 µM in test [4]; 40.3 µM in test [5]; over 100 µM in test [6]. In addition, the TGI is 64.8 µM in test [7], 87.3 µM in [8], over 100 µM in [9] and 41.1 µM in test [10].
Regarding `COc1cc(NC(C)CCCN2C(=O)c3ccccc3C2=O)c2ncccc2c1OC` (centres undefined), the GI50 is over 100 µM in [1]; 36.7 µM in [2]; 29.7 µM in test [3]; 24.9 µM in [4]; 34.2 µM in test [5]; 25.8 µM in test [6]. In addition, the GI50 was 34.9 µM in [7], 15.2 µM in test [8], 24 µM in [9] and 23.4 µM in test [10]. The TGI in test [1] was over 100 µM; in test [2] it was over 100 µM; in [3], over 100 µM; in test [4], 71.1 µM; in [5] it was over 100 µM; in [6] it was over 100 µM. Also, the TGI in test [7] is over 100 µM; in test [8], over 100 µM; in test [9] it was over 100 µM; in test [10] it was 83.7 µM.
For the compound `CS(=O)(=O)N1CCc2c(-c3cnc(N)nc3)nc(N3CCOCC3)nc21`, the GI50 in [1] was 0.128 µM and 0.166 µM; in [2], 0.18 µM and 0.136 µM; in [3] it was 0.988 µM and 0.44 µM; in test [4] it was 0.279 µM and 0.258 µM; in test [5], 0.94 µM and 0.78 µM; in [6], 0.59 µM and 0.641 µM. Besides, the GI50 is 1.65 µM and 0.984 µM in test [7]; 0.415 µM in test [8]; 2.16 µM and 1.63 µM in [9]; 0.51 µM and 0.479 µM in [10]. The TGI is 0.692 µM and 1.37 µM in test [1]; 3.14 µM and 3.03 µM in test [2]; > 10 µM and 5.74 µM in test [3]; > 5.95 µM and 11 µM in test [4]; > 10 µM and 12.6 µM in test [5]; over 21.4 µM in test [6]. Also, the TGI in test [7] is > 10 µM and 14 µM; in test [8] it was over 100 µM; in test [9] it was over 100 µM; in test [10], 6.08 µM and 6.39 µM.
Regarding `O=C1/C(=C/c2ccccc2[N+](=O)[O-])COc2ccc(O)c(O)c21`, the GI50 is 3.91 µM in test [1]; 0.295 µM in test [2]; 2.51 µM in [3]; 0.814 µM in test [4]; 0.691 µM in [5]; 0.295 µM in test [6]. For the same compound, the GI50 in test [7] is 0.525 µM; in test [8] it was 0.745 µM; in [9], 1.23 µM; in [10] it was 0.882 µM. The TGI came to 14.3 µM in [1]; 2.03 µM in test [2]; 10.8 µM in [3]; 4.89 µM in test [4]; 2.38 µM in [5]; 0.976 µM in [6]. Further, the TGI was 18.6 µM in [7], 8.13 µM in [8], 13.6 µM in test [9] and 4.02 µM in test [10].
For the compound `CCN1C(=O)N(CC)C2C1NN=c1s/c(=C\c3ccc(OC)cc3)c(=O)n12` (centres undefined), the GI50 was 0.267 µM in [1]; 0.653 µM in [2]; 0.44 µM in test [3]; 0.14 µM in test [4]; 0.031 µM in test [5]; 0.114 µM in test [6]. The GI50 in [7] was 0.369 µM; in test [8], 0.174 µM; in test [9], 0.0744 µM; in test [10] it was 0.288 µM. Besides, the TGI in test [1] was 17.1 µM; in test [2] it was over 100 µM; in test [3] it was over 100 µM; in test [4], over 100 µM; in test [5] it was 0.105 µM; in test [6] it was 0.526 µM. Further, the TGI is 0.477 µM in test [8], over 100 µM in [9] and over 25.1 µM in test [10].
Regarding `Oc1cccc(-c2nc(-c3ccccc3)[nH]c2-c2ccncc2)c1`, the GI50 was 9.29 µM in test [1]; 10.1 µM in test [2]; over 25 µM in [3]; over 20.8 µM in test [4]; 4.31 µM in test [5]; 18.6 µM in [6]. For the same compound, the GI50 is over 25 µM in test [7], 7.77 µM in [8], over 25 µM in test [9] and over 25 µM in test [10]. The TGI in test [1], in test [2], in test [3], in [4], in test [5] and in test [6] was over 25 µM in each case. Besides, the TGI was over 25 µM in [7], 19.4 µM in [8], over 25 µM in test [9] and over 25 µM in test [10].
For `CCCc1n(Cc2ccc3ccccc3n2)cc[n+]1Cc1ccc2ccccc2n1`, the GI50 in test [1] was 2.44 µM; in test [2], 16.5 µM; in [3], 5.67 µM; in [4], 1.85 µM; in test [5], 1.13 µM; in test [6], 0.705 µM. Also, the GI50 in test [7] is 3.16 µM; in test [8], 0.34 µM; in [9], over 100 µM; in test [10], 1.3 µM. Further, the TGI in test [1] was 9.68 µM; in test [2], 73.9 µM; in test [3], over 79.6 µM; in [4], 14.7 µM; in test [5], 11.9 µM; in test [6], 10.6 µM. Further, the TGI is 12.3 µM in test [7], 1.69 µM in [8], over 100 µM in test [9] and 8 µM in test [10].
Consider `N[C@@H](CSSC[C@H](N)C(=O)N1CCn2cc(-c3ccccc3)nc2[C@@H]1CC1CCCCC1)C(=O)N1CCn2cc(-c3ccccc3)nc2[C@@H]1CC1CCCCC1`, for which the GI50 in [1] was 1.59 µM; in test [2] it was 1.69 µM; in [3], 1.34 µM; in test [4], 2.91 µM; in test [5], 0.331 µM; in test [6], 1.41 µM. Moreover, the GI50 in test [7] is 1.87 µM; in [8] it was 2.13 µM; in [9], 2.95 µM; in test [10], 2.23 µM. The TGI in test [1] was 5.42 µM; in test [2], 3.61 µM; in [3] it was 2.81 µM; in test [4], 9.62 µM; in [5], 1.45 µM; in test [6], 2.76 µM. Besides, the TGI in [7] is 5.76 µM; in test [8], over 19.7 µM; in test [9], 9.32 µM; in test [10], 3.91 µM.
For `CCCCCCSc1nc(COC(=O)NC)c(COC(=O)NC)n1C`, the TGI in test [1], in test [2], in [3], in [4], in test [5] and in test [6] was over 100 µM throughout. Besides, the TGI in test [7], in test [8], in [9] and in [10] was over 100 µM each time.
With `CC1COCCN1CC#CCOC(=O)c1cc2ccccc2oc1=O` (centres undefined), the GI50 in test [1], in test [2], in [3], in [4], in [5] and in test [6] was over 100 µM in each case. Also, the GI50 in test [7], in [8], in test [9] and in [10] was over 100 µM each time. In addition, the TGI in [1], in [2], in [3], in test [4], in [5] and in test [6] was over 100 µM each time. For the same compound, the TGI in test [7], in test [8], in test [9] and in test [10] was over 100 µM each time.
